Molecular target: KDR (Homo sapiens, UniProt P35968)
Test: KDR cellular assay (KDR receptor phosphorylation ELISA)
Format: cell-based
Parameters: expressed in transfected cells; host or cells: 3T3 (embryonic mouse) cells
Conditions: KDR transfected 3T3 (embryonic mouse) cells, VEGF stimulated; read-out: IC50 inhibition of KDR phosphorylation
How it was run: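 Phospho-KDR measured by capture ELISA (anti-KDR coat, biotinylated detection, streptavidin-HRP, 450 nm) in lysates of KDR-expressing 3T3 mouse fibroblasts. Cells saw compound 20 min at 37° C before 10 min VEGF challenge (100 ng/ml solution); IC50 from non-linear regression of half-log dose series.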

KDR, sequence (P35968 20-1356): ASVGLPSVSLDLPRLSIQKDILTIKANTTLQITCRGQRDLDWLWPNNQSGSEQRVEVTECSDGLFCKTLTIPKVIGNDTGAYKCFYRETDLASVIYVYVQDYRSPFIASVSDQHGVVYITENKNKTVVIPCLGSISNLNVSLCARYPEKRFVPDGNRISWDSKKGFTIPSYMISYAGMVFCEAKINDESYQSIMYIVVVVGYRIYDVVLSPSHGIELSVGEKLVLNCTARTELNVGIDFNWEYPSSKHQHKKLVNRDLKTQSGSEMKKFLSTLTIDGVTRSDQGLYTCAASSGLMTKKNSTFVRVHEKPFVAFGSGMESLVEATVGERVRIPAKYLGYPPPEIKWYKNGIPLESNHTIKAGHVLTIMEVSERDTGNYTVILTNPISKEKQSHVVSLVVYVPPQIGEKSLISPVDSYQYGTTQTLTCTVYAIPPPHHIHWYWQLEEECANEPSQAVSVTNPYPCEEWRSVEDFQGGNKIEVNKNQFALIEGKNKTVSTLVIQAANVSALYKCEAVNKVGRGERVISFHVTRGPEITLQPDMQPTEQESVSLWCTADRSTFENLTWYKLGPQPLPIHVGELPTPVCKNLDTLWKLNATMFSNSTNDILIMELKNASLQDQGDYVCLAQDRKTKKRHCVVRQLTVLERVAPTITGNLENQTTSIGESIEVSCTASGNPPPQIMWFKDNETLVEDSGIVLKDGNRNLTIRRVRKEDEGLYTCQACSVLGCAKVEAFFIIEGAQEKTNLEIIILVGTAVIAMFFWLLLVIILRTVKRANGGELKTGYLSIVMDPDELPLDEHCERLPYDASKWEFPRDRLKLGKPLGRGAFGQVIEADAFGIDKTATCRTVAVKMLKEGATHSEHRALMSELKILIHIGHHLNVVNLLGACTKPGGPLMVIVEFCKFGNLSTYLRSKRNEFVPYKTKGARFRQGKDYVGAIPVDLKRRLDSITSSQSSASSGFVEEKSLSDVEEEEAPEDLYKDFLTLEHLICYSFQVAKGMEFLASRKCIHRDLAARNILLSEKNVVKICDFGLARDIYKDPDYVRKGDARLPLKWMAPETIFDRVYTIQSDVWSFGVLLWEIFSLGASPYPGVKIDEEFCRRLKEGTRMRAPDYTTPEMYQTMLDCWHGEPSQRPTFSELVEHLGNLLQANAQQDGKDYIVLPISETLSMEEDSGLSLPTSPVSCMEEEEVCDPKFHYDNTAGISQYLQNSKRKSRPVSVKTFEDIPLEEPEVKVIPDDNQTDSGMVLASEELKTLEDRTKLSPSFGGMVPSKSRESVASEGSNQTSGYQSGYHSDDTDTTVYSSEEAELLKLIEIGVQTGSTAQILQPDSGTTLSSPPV

Structure (SMILES)	IC50 [nM]
Cn1cc(Nc2ncc(C(F)(F)F)c(N[C@@H]3[C@H](C(N)=O)[C@H]4C=C[C@@H]3C4)n2)cn1.Cn1cc(Nc2ncc(C(F)(F)F)c(N[C@H]3[C@@H](C(N)=O)[C@@H]4C=C[C@H]3C4)n2)cn1 (mixture of isomers) [Example 10, (1S,2S,3R,4R)-3-{[2-[(1-methyl-1H-pyrazol-4-yl)amino]-5-(trifluoromethyl)pyrimidin-4-yl]amino}bicyclo[2.2.1]hept-5-ene-2-carboxamide and (1R,2R,3S,4S)-3-{[2-[(1-methyl-1H-pyrazol-4-yl)amino]-5-(trifluoromethyl)pyrimidin-4-yl]amino}bicyclo[2.2.1]hept-5-ene-2-carboxamide]	< 100
CC(O)Cn1cc(Nc2ncc(C(F)(F)F)c(NC3C4C=CC(C4)C3C(N)=O)n2)cn1 (mixture of isomers) [Example 19, (1R,2R,3S,4S)-3-{[2-({1-[(2R)-2-hydroxypropyl]-1H-pyrazol-4-yl}amino)-5-(trifluoromethyl)pyrimidin-4-yl]amino}bicyclo[2.2.1]hept-5-ene-2-carboxamide and (1S,2S,3R,4R)-3-{[2-({1-[(2R)-2-hydroxypropyl]-1H-pyrazol-4-yl}amino)-5-(trifluoromethyl)pyrimidin-4-yl]amino}bicyclo[2.2.1]hept-5-ene-2-carboxamide]	< 100
Cn1cc(Nc2ncc(C(F)(F)F)c(N[C@@H]3[C@@H]4CC[C@@H](C4)[C@@H]3C(N)=O)n2)cn1.Cn1cc(Nc2ncc(C(F)(F)F)c(N[C@H]3[C@H]4CC[C@H](C4)[C@H]3C(N)=O)n2)cn1 (mixture of isomers) [Example 20, (1S,2S,3R,4R)-3-{[2-[(1-methyl-1H-pyrazol-4-yl)amino]-5-(trifluoromethyl)pyrimidin-4-yl]amino}bicyclo[2.2.1]heptane-2-carboxamide and (1R,2R,3S,4S)-3-{[2-[(1-methyl-1H-pyrazol-4-yl)amino]-5-(trifluoromethyl)pyrimidin-4-yl]amino}bicyclo[2.2.1]heptane-2-carboxamide]	< 100
CC(O)Cn1cc(Nc2ncc(C(F)(F)F)c(NC3C4CCC(C4)C3C(N)=O)n2)cn1 (mixture of isomers) [Example 21, (1S,2R,3S,4R)-3-{[2-({1-[(2R)-2-hydroxypropyl]-1H-pyrazol-4-yl}amino)-5-(trifluoromethyl)pyrimidin-4-yl]amino}bicyclo[2.2.1]heptane-2-carboxamide and (1R,2S,3R,4S)-3-{[2-({1-[(2R)-2-hydroxypropyl]-1H-pyrazol-4-yl}amino)-5-(trifluoromethyl)pyrimidin-4-yl]amino}bicyclo[2.2.1]heptane-2-carboxamide]	100 to 1000
CCn1cc(Nc2ncc(C(F)(F)F)c(N[C@@H]3[C@H](C(N)=O)[C@H]4C=C[C@@H]3C4)n2)cn1.CCn1cc(Nc2ncc(C(F)(F)F)c(N[C@H]3[C@@H](C(N)=O)[C@@H]4C=C[C@H]3C4)n2)cn1 (mixture of isomers) [Example 22, (1S,2S,3R,4R)-3-{[2-[(1-ethyl-1H-pyrazol-4-yl)amino]-5-(trifluoromethyl)pyrimidin-4-yl]amino}bicyclo[2.2.1]hept-5-ene-2-carboxamide and (1R,2R,3S,4S)-3-{[2-[(1-ethyl-1H-pyrazol-4-yl)amino]-5-(trifluoromethyl)pyrimidin-4-yl]amino}bicyclo[2.2.1]hept-5-ene-2-carboxamide]	< 100
CCn1cc(Nc2ncc(C(F)(F)F)c(N[C@@H]3[C@H]4CC[C@H](C4)[C@@H]3C(N)=O)n2)cn1.CCn1cc(Nc2ncc(C(F)(F)F)c(N[C@H]3[C@@H]4CC[C@@H](C4)[C@H]3C(N)=O)n2)cn1 (mixture of isomers) [Example 24, (1R,2S,3R,4S)-3-{[2-[(1-ethyl-1H-pyrazol-4-yl)amino]-5-(trifluoromethyl)pyrimidin-4-yl]amino}bicyclo[2.2.1]heptane-2-carboxamide and (1S,2R,3S,4R)-3-{[2-[(1-ethyl-1H-pyrazol-4-yl)amino]-5-(trifluoromethyl)pyrimidin-4-yl]amino}bicyclo[2.2.1]heptane-2-carboxamide]	< 100
CCn1cc(Nc2ncc(Br)c(N[C@@H]3[C@H](C(N)=O)[C@H]4C=C[C@@H]3C4)n2)cn1.CCn1cc(Nc2ncc(Br)c(N[C@H]3[C@@H](C(N)=O)[C@@H]4C=C[C@H]3C4)n2)cn1 (mixture of isomers) [Example 31, (1S,2S,3R,4R)-3-({5-bromo-2-[(1-ethyl-1H-pyrazol-4-yl)amino]pyrimidin-4-yl}amino)bicyclo[2.2.1]hept-5-ene-2-carboxamide and (1R,2R,3S,4S)-3-({5-bromo-2-[(1-ethyl-1H-pyrazol-4-yl)amino]pyrimidin-4-yl}amino)bicyclo[2.2.1]hept-5-ene-2-carboxamide]	< 100
Cn1cc(Nc2ncc(Cl)c(N[C@@H]3[C@@H]4CC[C@@H](C4)[C@@H]3C(N)=O)n2)cn1.Cn1cc(Nc2ncc(Cl)c(N[C@H]3[C@H]4CC[C@H](C4)[C@H]3C(N)=O)n2)cn1 (mixture of isomers) [Example 113, (1R,2R,3S,4S)-3-({5-chloro-2-[(1-methyl-1H-pyrazol-4-yl)amino]pyrimidin-4-yl}amino)bicyclo[2.2.1]heptane-2-carboxamide and (1S,2S,3R,4R)-3-({5-chloro-2-[(1-methyl-1H-pyrazol-4-yl)amino]pyrimidin-4-yl}amino)bicyclo[2.2.1]heptane-2-carboxamide]	100 to 1000
CCn1cc(Nc2ncc(Cl)c(N[C@@H]3[C@@H]4CC[C@@H](C4)[C@@H]3C(N)=O)n2)cn1.CCn1cc(Nc2ncc(Cl)c(N[C@H]3[C@H]4CC[C@H](C4)[C@H]3C(N)=O)n2)cn1 (mixture of isomers) [Example 114, (1R,2R,3S,4S)-3-({5-chloro-2-[(1-ethyl-1H-pyrazol-4-yl)amino]pyrimidin-4-yl}amino)bicyclo[2.2.1]heptane-2-carboxamide and (1S,2S,3R,4R)-3-({5-chloro-2-[(1-ethyl-1H-pyrazol-4-yl)amino]pyrimidin-4-yl}amino)bicyclo[2.2.1]heptane-2-carboxamide]	100 to 1000
CCn1cc(Nc2ncc(Cl)c(N[C@@H]3[C@H](C(N)=O)[C@@H]4C=C[C@H]3C4)n2)cn1.CCn1cc(Nc2ncc(Cl)c(N[C@H]3[C@@H](C(N)=O)[C@H]4C=C[C@@H]3C4)n2)cn1 (mixture of isomers) [Example 121, (1S,2R,3S,4R)-3-({5-chloro-2-[(1-ethyl-1H-pyrazol-4-yl)amino]pyrimidin-4-yl}amino)bicyclo[2.2.1]hept-5-ene-2-carboxamide and (1R,2S,3R,4S)-3-({5-chloro-2-[(1-ethyl-1H-pyrazol-4-yl)amino]pyrimidin-4-yl}amino)bicyclo[2.2.1]hept-5-ene-2-carboxamide]	100 to 1000
NC(=O)[C@@H]1CCC[C@@H]1Nc1nc(Nc2cnn(C3CCNCC3)c2)ncc1Cl.NC(=O)[C@H]1CCC[C@H]1Nc1nc(Nc2cnn(C3CCNCC3)c2)ncc1Cl (mixture of isomers) [Example 136, (1S,2R)-2-[(5-chloro-2-{[1-(piperidin-4-yl)-1H-pyrazol-4-yl]amino}pyrimidin-4-yl)amino]cyclopentanecarboxamide and (1R,2S)-2-[(5-chloro-2-{[1-(piperidin-4-yl)-1H-pyrazol-4-yl]amino}pyrimidin-4-yl)amino]cyclopentanecarboxamide]	100 to 1000
Cn1cc(Nc2ncc(Cl)c(N[C@@H]3[C@H](C(N)=O)[C@H]4CC[C@@H]3O4)n2)cn1.Cn1cc(Nc2ncc(Cl)c(N[C@H]3[C@@H](C(N)=O)[C@@H]4CC[C@H]3O4)n2)cn1 (mixture of isomers) [Example 141, (1S,2R,3S,4R)-3-({5-chloro-2-[(1-methyl-1H-pyrazol-4-yl)amino]pyrimidin-4-yl}amino)-7-oxabicyclo[2.2.1]heptane-2-carboxamide and (1R,2S,3R,4S)-3-({5-chloro-2-[(1-methyl-1H-pyrazol-4-yl)amino]pyrimidin-4-yl}amino)-7-oxabicyclo[2.2.1]heptane-2-carboxamide]	100 to 1000
Cn1cc(Nc2ncc(Cl)c(N[C@@H]3CC[C@@H]3C(N)=O)n2)cn1.Cn1cc(Nc2ncc(Cl)c(N[C@H]3CC[C@H]3C(N)=O)n2)cn1 (mixture of isomers) [Example 151, (1S,2R)-2-({5-chloro-2-[(1-methyl-1H-pyrazol-4-yl)amino]pyrimidin-4-yl}amino)cyclobutanecarboxamide and (1R,2S)-2-({5-chloro-2-[(1-methyl-1H-pyrazol-4-yl)amino]pyrimidin-4-yl}amino)cyclobutanecarboxamide]	100 to 1000
CCn1cc(Nc2ncc(Cl)c(N[C@H]3[C@@H](C(N)=O)[C@@H]4C=C[C@H]3C4)n2)cn1 (racemic) [Example 30, (1S,2S,3R,4R)-3-({5-chloro-2-[(1-ethyl-1H-pyrazol-4-yl)amino]pyrimidin-4-yl}amino)bicyclo[2.2.1]hept-5-ene-2-carboxamide and (1R,2R,3S,4S)-3-({5-chloro-2-[(1-ethyl-1H-pyrazol-4-yl)amino]pyrimidin-4-yl}amino)bicyclo[2.2.1]hept-5-ene-2-carboxamide]	< 100
CCn1cc(Nc2ncc(Cl)c(NC3C4CCC(O4)C3C(N)=O)n2)cn1 (racemic) [Example 142, (1S,2R,3S,4R)-3-({5-chloro-2-[(1-ethyl-1H-pyrazol-4-yl)amino]pyrimidin-4-yl}amino)-7-oxabicyclo[2.2.1]heptane-2-carboxamide and (1R,2S,3R,4S)-3-({5-chloro-2-[(1-ethyl-1H-pyrazol-4-yl)amino]pyrimidin-4-yl}amino)-7-oxabicyclo[2.2.1]heptane-2-carboxamide]	100 to 1000
CC(C)NC(=O)C1CCCC1Nc1nc(Nc2cnn(C3CCNCC3)c2)ncc1Cl (racemic) [Example 163, (1S,2R)-2-[(5-chloro-2-{[1-(piperidin-4-yl)-1H-pyrazol-4-yl]amino}pyrimidin-4-yl)amino]-N-isopropylcyclopentanecarboxamide and (1R,2S)-2-[(5-chloro-2-{[1-(piperidin-4-yl)-1H-pyrazol-4-yl]amino}pyrimidin-4-yl)amino]-N-isopropylcyclopentanecarboxamide]	100 to 1000

Reference: patent publication US8426408B2, “Pyrimidine inhibitors of kinases” (AbbVie Inc., priority 2009, dated 2013)
